Experimental data: US6596863B2, “Medical composition containing nitroetheneamine Derivative or salt there of as active constituent” (Ishihara Sangyo Kaisha, Ltd., priority 1998, dated 2003)
Where two headings read alike, the source gives them in different places. Marks after values point to notes of the source that are not given here.

Experiments:
[1] = target: T1, human MMP-9 (gelatinase B) (Homo sapiens, UniProt P14780); assay: Inhibition activity against human MMP-9 (gelatinase B), fluorescent peptide substrate; format: biochemical; conditions: compounds of the formula (I)
T1 construct: endogenous in cells; host or cells: HT1080 human fibrosarcoma cells (ATCC CCL-121), PMA-stimulated; enzyme purified from the culture supernatant
T1 sequence (P14780 107-707 limits assumed): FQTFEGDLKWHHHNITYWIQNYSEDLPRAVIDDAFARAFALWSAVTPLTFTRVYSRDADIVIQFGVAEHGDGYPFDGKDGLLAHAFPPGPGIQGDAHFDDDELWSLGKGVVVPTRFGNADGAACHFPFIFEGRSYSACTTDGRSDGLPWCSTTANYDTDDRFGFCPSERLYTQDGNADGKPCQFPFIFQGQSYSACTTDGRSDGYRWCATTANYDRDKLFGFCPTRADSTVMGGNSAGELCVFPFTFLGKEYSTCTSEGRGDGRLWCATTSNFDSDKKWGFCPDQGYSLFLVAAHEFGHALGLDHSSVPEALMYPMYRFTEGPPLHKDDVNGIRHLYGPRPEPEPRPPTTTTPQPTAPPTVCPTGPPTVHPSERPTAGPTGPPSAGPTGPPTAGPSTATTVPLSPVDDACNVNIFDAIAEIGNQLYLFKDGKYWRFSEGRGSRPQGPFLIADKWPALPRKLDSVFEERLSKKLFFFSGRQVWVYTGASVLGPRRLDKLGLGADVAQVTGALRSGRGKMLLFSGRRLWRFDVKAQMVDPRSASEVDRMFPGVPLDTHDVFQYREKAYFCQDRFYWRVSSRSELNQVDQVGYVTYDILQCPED
Summary of the method: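 MMP-9 purified from PMA-stimulated (10 ng/ml) HT1080 supernatant, or commercial enzyme (0.0125-0.025 unit/ml or 0.2 μg/ml final), incubated with compound and 10 μM final Mca-Pro-Leu-Gly-Leu-Dpa-Ala-Arg-NH2 fluorescent substrate at 37 °C for 3 h in the dark. Precursor enzyme activated with APMA.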

[2] = test system: Colon 26/AD cells (mouse colon cancer); format: in vivo
Protocol: Colon 26 mouse colon cancer cells (obtained from Cancer Chemotherapy Center Foundation for Cancer Research) were transplanted subcutaneously to BALB/c mouse, 10 days later, the grown tumor was taken out. It was hashed in a Hanks equilibrium salt solution and passed through a metal mesh to obtain single cells, which were cultured in vitro (37° C., 5% CO2) (using 10% fetal bovine serum-containing Dulbecco's Modified Eagle Medium (D-5648, manufactured by Sigma Co.)). […] The same cell strain always produced and secreted MMP-2 in the supernatant of the in vitro culture, but when cultured by an addition of TNF-α (50 ng/ml) in the culture solution, it produced MMP-9 remarkably.
With reference to the method by Tsuruo et al (Japanese Journal of Cancer Research (Gann), Vol. 75, 193-198, 1984), the inhibition effects against experimental lung metastasis were evaluated. Namely, 3×10^4 Colon 26/AD cells (suspended in 0.2 ml of Minimum Essential Medium (manufactured by Nissui Seiyaku K. K.)) cultured in vitro were transplanted through the tail vein of a male BALB/c AnNCrj mouse (purchased from Charles River Japan, Inc.) of 6 weeks old (Day 0). In the case of Compound No. 37, it was suspended in a 1% Tween 80/physiological sodium chloride aqueous solution and intraperitoneally administered (administered in a volume of 10 ml/kg) immediately (within 5 minutes) before transplantation of the cells, 2 hours later and once per day on Day 1-4 and Day 7-11 (a total of 11 times). Further, in the case of Compound No. 157, it was dissolved in 100 mM Tris-HCl (pH 8.5)/150 mM NaCl and forcibly orally administered (administered in a volume of 10 ml/kg) by means of a metal sonde 30 minutes before transplantation of the cells, in the morning and evening of Day 1 and once per day on Day 2-4, Day 7-11 and Day 14 (a total of 12 times). To the vehicle control group, the respective solvents containing no test materials, were administered in the same manner. On Day 14 or Day 15, the lung of each mouse was taken out, and the weight was measured, and the metastatis inhibition rate was calculated in accordance with the following formula. [formula]
A is the weight of lung of the treated group
B is the average weight of lung of the normal group
C is the average weight of lung of the solvent control group.

human MMP-7 = target: T2, human MMP-7 (Homo sapiens, UniProt P09237); assay: Enzyme inhibition activity against MMP-7 (matrilysin), fluorescent peptide substrate NFF-2; format: biochemical; conditions: human MMP-7, substrate NFF-2, 37° C. for 2.5 hours
T2 construct: purchased Kabushiki Kaisha Yagai Chuo Kenkyusho YU-31001
T2 sequence (P09237 95-267): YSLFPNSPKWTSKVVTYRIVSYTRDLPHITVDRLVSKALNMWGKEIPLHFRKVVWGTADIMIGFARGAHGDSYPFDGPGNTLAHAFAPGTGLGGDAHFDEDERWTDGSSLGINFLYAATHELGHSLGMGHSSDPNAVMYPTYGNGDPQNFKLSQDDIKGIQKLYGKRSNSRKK
Protocol: The inhibition activity against human MMP-7 was measured by the same method as the method for MMP-3, by using a MMP-7 solution (0.025 unit/ml; No. YU-31001, manufactured by Kabushiki Kaisha Yagai Chuo Kenkyusho, purity: at least 99.9%) and a fluorescent peptide substrate MOCAc—Arg-Pro-Lys-Pro-Tyr—Ala-Nva-Trp-Met-Lys(Dnp) -NH2 [NFF-2, No. 3167-v, manufactured by Peptide Institute, Inc.]. The enzymatic reaction was carried out at 37° C. for 2.5 hours in a dark place, and the relative fluorescence intensity was measured at a fluorescence wavelength of 400 nm with an excitation wavelength of 327 nm.

[3] = 1st measurement, read-out: MMP-9 inhibition activities IC50, 1st
[4] = 2nd measurement, read-out: MMP-9 inhibition activities IC50, 2nd
[5] = average of 1st and 2nd (or single measurement), read-out: MMP-9 inhibition activities IC50, Average

`CNC(=C[N+](=O)[O-])NNc1cc(C(F)(F)F)cc(Cl)n1` [Compound No. 37] showed an IC50 [1, 3] of 4.5 µM, an IC50 [1, 4] of 7 µM and an IC50 [1, 5] of 5.8 µM. For the same compound, the “Metastatis inhibition ratio (%)” value ([2]; 30 mg/kg × 11 times, intraperitoneal, Day 14) was 40.2%*, the “Lung weight increase (g) against normal mouse” value ([2]; 30 mg/kg × 11 times, intraperitoneal, Day 14, vehicle control 0.189 ± 0.07) was 0.113 ± 0.06 g and the “Weight of lung (g) (Day 14)” value ([2]; 30 mg/kg × 11 times, intraperitoneal, Day 14, vehicle control 0.402, normal mouse 0.213) was 0.326 g. The “inhibition ratio of experimental metastasis of Colon 26/AD to lung” value ([2]; 30 mg/kg, intraperitoneal administration, total of 11 times, male BALB/c mouse, from lung weight) was 40.2% and the IC50 (human MMP-7) was 24.5 µM.

Compound `CCOCCCOc1cc(C(F)(F)F)cc(NNC(=C[N+](=O)[O-])NC)n1` [compound 197] has a melting point of 147 °C, an IC50 [1, 3] of 10.3 µM and an IC50 [1, 4] of 10.9 µM. The IC50 [1, 5] was 10.6 µM.

Work on `O=[N+]([O-])C=C(NCCCCO)NNc1cc(C(F)(F)F)cc(Cl)n1` [compound 199] yielded a melting point of 150 to 151 °C, an IC50 [1, 3] of 5.7 µM and an IC50 [1, 4] of 6.2 µM. For the same compound, the IC50 [1, 5] was 6 µM.

With `Cc1cc(C)c(S(C)(=O)=O)c(NNC(=C[N+](=O)[O-])NS(C)(=O)=O)n1` [compound 202] the melting point was 170 °C (dec.), the IC50 [1, 3] was 6.3 µM and the IC50 [1, 5] was 6.3 µM.
